pEC50: −log10 of the molar value. Values joined by “and” are separate entries in the source; they are usually repeats but may differ in a detail not shown here. Identical values can stand only once.
target: Human immunodeficiency virus type 1 reverse transcriptase (Human immunodeficiency virus 1, UniProt Q72547); assay: Inhibitory concentration against HIV-1 reverse transcriptase

Structure (SMILES) | pEC50
Cc1c(Sc2cc(Cl)cc(Cl)c2)n(COCCO)c(=O)[nH]c1=O | 5.89
CC(=O)c1cccc(Sc2c(C)c(=O)[nH]c(=O)n2COCCO)c1 | 5.14
C=Cc1c(Sc2ccccc2)n(COCCO)c(=O)[nH]c1=O | 5.33
O=c1[nH]c(=O)n(COCCO)c(Sc2ccccc2)c1I | 5.37
CCc1c(Sc2ccccc2)n(COCC2CCCCC2)c(=O)[nH]c1=O | 6.35
CCc1c(Sc2ccccc2)n(COCCc2ccccc2)c(=O)[nH]c1=O | 7.02
CC(C)c1c(Sc2ccccc2)n(COCc2ccccc2)c(=S)[nH]c1=O | 8.17
CCOCn1c(Sc2ccccc2)c(C(C)C)c(=O)[nH]c1=S | 7.85
CCc1c(Sc2ccccc2)n(CC(C)C)c(=O)[nH]c1=O | 6.47
CCc1c(Sc2ccccc2)n(COCc2ccccc2)c(=S)[nH]c1=O | 8.11
CCc1c(Sc2ccccc2)n(COCCc2ccccc2)c(=S)[nH]c1=O | 7.04
CCc1c(Sc2ccccc2)n(COCc2ccc(C)cc2)c(=S)[nH]c1=O | 7.11
CCc1c(Sc2cc(C)cc(C)c2)n(COCc2ccccc2)c(=S)[nH]c1=O | 8.16
CCc1c(Sc2ccccc2)n(CCCc2ccccc2)c(=O)[nH]c1=O | 6.54
CCOCn1c(Sc2cc(C)cc(C)c2)c(CC)c(=O)[nH]c1=O | 8.27
CCc1c(Sc2ccccc2)n(COCC2CCCCC2)c(=S)[nH]c1=O | 6.46
CCc1c(Sc2ccccc2)n(CC(C)C)c(=S)[nH]c1=O | 6.66
Cc1cccc(Sc2c(C)c(=O)[nH]c(=O)n2COCCO)c1 | 5.59
Cc1c(Sc2cccc(I)c2)n(COCCO)c(=O)[nH]c1=O | 5.00
Cc1ccc(Sc2c(C)c(=O)[nH]c(=O)n2COCCO)cc1 | 3.66
COC(=O)c1cccc(Sc2c(C)c(=O)[nH]c(=O)n2COCCO)c1 | 5.10

Structure (SMILES) | pEC50
CCc1c(Sc2cc(C)cc(C)c2)n(COCCO)c(=S)[nH]c1=O | 8.11
Cc1c(Sc2cccc([N+](=O)[O-])c2)n(COCCO)c(=O)[nH]c1=O | 4.47
CCc1c(Sc2cc(Cl)cc(Cl)c2)n(COCCO)c(=S)[nH]c1=O | 7.37
COc1cccc(Sc2c(C)c(=O)[nH]c(=O)n2COCCO)c1 | 4.66
Cc1cc(C)cc(Sc2c(C(C)C)c(=O)[nH]c(=S)n2COCCO)c1 | 8.30
Cc1c(Sc2ccccc2[N+](=O)[O-])n(COCCO)c(=O)[nH]c1=O | 3.85
CC(C)c1c(Sc2ccccc2)n(COCCO)c(=O)[nH]c1=O | 7.20
Cc1c(Sc2cccc(C(C)(C)C)c2)n(COCCO)c(=O)[nH]c1=O | 4.92
CC(C)c1c(Sc2ccccc2)n(COCCO)c(=S)[nH]c1=O | 7.23
Cc1c(Sc2cccc(F)c2)n(COCCO)c(=O)[nH]c1=O | 5.48
COc1ccccc1Sc1c(C)c(=O)[nH]c(=O)n1COCCO | 4.72
CCc1c(Sc2ccccc2)n(COCCO)c(=O)[nH]c1=O | 6.96 and 6.92
Cc1cc(C)cc(Sc2c(C)c(=O)[nH]c(=S)n2COCCO)c1 | 6.66
Cc1c(Sc2cccc(C#N)c2)n(COCCO)c(=O)[nH]c1=O | 5.00
Cc1c(Sc2cccc(O)c2)n(COCCO)c(=O)[nH]c1=O | 4.09
Cc1c(Sc2cccc(Br)c2)n(COCCO)c(=O)[nH]c1=O | 5.24
Cc1ccccc1Sc1c(C)c(=O)[nH]c(=O)n1COCCO | 4.15
Cc1c(Oc2ccccc2)n(COCCO)c(=O)[nH]c1=O | 5.05
CCc1c(Sc2ccccc2)n(COCc2ccccc2)c(=O)[nH]c1=O | 8.23
CCCCn1c(Sc2ccccc2)c(C)c(=O)[nH]c1=O | 5.92
Cc1c(Sc2ccccc2)n(C/C=C/c2ccccc2)c(=O)[nH]c1=O | 5.60

Structure (SMILES) | pEC50
CCc1c(Sc2ccccc2)n(C/C=C/c2ccccc2)c(=O)[nH]c1=O | 6.72
CCc1c(Sc2cc(C)cc(C)c2)n(COCc2ccccc2)c(=O)[nH]c1=O | 8.49
CCc1c(Sc2cc(C)cc(C)c2)n(C/C=C/c2cccs2)c(=O)[nH]c1=O | 7.40
CCOCn1c(Cc2cc(C)cc(C)c2)c(CC)c(=O)[nH]c1=O | 8.80
CCOCn1c(Cc2cc(C)cc(C)c2)c(C(C)C)c(=O)[nH]c1=O | 9.22
COCCn1c(Cc2ccccc2)c(C(C)C)c(=O)[nH]c1=O | 7.28
CCOCn1c(Sc2ccccc2)c(C2CC2)c(=O)[nH]c1=S | 7.02
Cc1c(Sc2ccc(C3CCCCC3)cc2)n(COCCO)c(=O)[nH]c1=O | 5.46
CCc1c(Sc2ccccc2)n(COCc2ccc(Cl)cc2)c(=S)[nH]c1=O | 7.92
CCc1c(Sc2ccccc2)n(COC2CCCCC2)c(=S)[nH]c1=O | 5.80
CCOCn1c(Sc2cc(Cl)cc(Cl)c2)c(CC)c(=O)[nH]c1=O | 8.13
CCOCn1c(Sc2cc(C)cc(C)c2)c(CC)c(=O)[nH]c1=S | 8.36
CCOCn1c(Sc2cc(Cl)cc(Cl)c2)c(CC)c(=O)[nH]c1=S | 7.89
CCc1c(Sc2ccccc2)n(COC2CCCCC2)c(=O)[nH]c1=O | 5.40
Cc1c(Cc2ccccc2)n(COCCO)c(=O)[nH]c1=O | 5.24
CCOCn1c(Sc2ccccc2)c(CC)c(=O)[nH]c1=O | 7.72
Cc1c(Sc2ccccc2)n(COCc2ccccc2)c(=O)[nH]c1=O | 7.06
CCOCn1c(Sc2ccccc2)c(C)c(=O)[nH]c1=O | 6.48
COCCOCn1c(Sc2ccccc2)c(C)c(=O)[nH]c1=O | 5.06
CCOCn1c(Sc2ccccc2)c(C(C)C)c(=O)[nH]c1=O | 7.92
CCn1c(Sc2ccccc2)c(C)c(=O)[nH]c1=O | 5.66

Structure (SMILES) | pEC50
CC(C)c1c(Sc2ccccc2)n(COCc2ccccc2)c(=O)[nH]c1=O | 8.57
COCn1c(Sc2ccccc2)c(C)c(=O)[nH]c1=O | 5.68
CCOCn1c(Sc2ccccc2)c(C2CC2)c(=O)[nH]c1=O | 7.00
CCCOCn1c(Sc2ccccc2)c(C)c(=O)[nH]c1=O | 5.44
CCc1cccc(Sc2c(C)c(=O)[nH]c(=O)n2COCCO)c1 | 5.57
CCc1c(Sc2ccccc2)n(C/C=C/c2cccs2)c(=O)[nH]c1=O | 7.10
Cc1c(Sc2cccc(Cl)c2)n(COCCO)c(=O)[nH]c1=O | 4.89
CCOCn1c(Sc2ccccc2)c(CC)c(=O)[nH]c1=S | 7.59
CCc1c(Sc2cc(Cl)cc(Cl)c2)n(COCCO)c(=O)[nH]c1=O | 7.85
CCc1c(Cc2ccccc2)n(CCOC)c(=O)[nH]c1=O | 6.60
CCc1c(Sc2ccccc2)n(C/C=C/c2ccco2)c(=O)[nH]c1=O | 6.77
Cc1c(Sc2cccc(C(F)(F)F)c2)n(COCCO)c(=O)[nH]c1=O | 4.35
CCc1c(Sc2cc(C)cc(C)c2)n(C/C=C/c2ccco2)c(=O)[nH]c1=O | 7.40
Cc1c(Sc2ccccc2)n(C/C=C/c2cccnc2)c(=O)[nH]c1=O | 7.00
CCOCn1c(Cc2ccccc2)c(CC)c(=O)[nH]c1=O | 7.39
CC(C)c1c(Cc2ccccc2)n(COCCO)c(=O)[nH]c1=O | 7.20
Cc1cc(C)cc(Cc2c(C(C)C)c(=O)[nH]c(=O)n2COCCO)c1 | 8.57
CCc1c(Cc2cc(C)cc(C)c2)n(COCCO)c(=O)[nH]c1=O | 7.89
CCc1c(Cc2ccccc2)n(COCCO)c(=O)[nH]c1=O | 6.46
CCOCn1c(Cc2ccccc2)c(C(C)C)c(=O)[nH]c1=O [EMIVIRINE] | 8.38

Reference: ChEMBL document CHEMBL1130269, “A 3D QSAR study of a series of HEPT analogues: the influence of conformational mobility on HIV-1 reverse transcriptase inhibition” (J Med Chem, 1997)
